Measured values reported in patent publication US6645996B1, “Physiologically active substances” (Mercian Corporation and Eisai Co., Ltd., priority 1998, dated 2003).

How the values were obtained:
[1] = Solubility (analysis data); assay type: physicochemical
[2] = Safety of VD1207 analogues, intraperitoneal administration over 4 days; assay type: in vivo; set-up: key to Blood (WBC) / Blood (PLAT) / Biochemistry (UN) / Biochemistry (GPT) / Weight (liver) / Weight (kidney) / Weight (lung) / Weight (spleen) / Body weight / Blood (RBC): —: “-” indicates no abnormality; “↑” and “↓” indicate an increase and a decrease, respectively; “↑” and “↓” indicate an increase and a decrease, respectively
Description: Each of VD1207B, C, D, E, F and G2 was continuously administered intraperitoneally at each dose of 1 mg/kg and 2 mg/kg over 4 days to examine the safety of VD1207 analogues.

aorta pieces of rat = test: Inhibition of capillary formation in rat aorta model (aorta pieces cultured in collagen gel); assay type: cell-based; details: 7th day from addition of sample, listed as C
Description: In a method of screening the antiangiogenic effect, the degree of inhibition to the formation of lumens observed when an aortic fragment of a rat is cultured in a collagen gel was selected as an indicator (Nicosia R. F., Lab. Invest., 63, 115, 1990). Also, for the purpose of analyzing the mechanism of action of the antiangiogenic effect of the resulting compound, measurements were made concerning the effect of inhibiting the growth of endothelial cells by using endothelial cells derived from the human umbilical cord vein and the effect of inhibiting the expression of an adhesion molecules on endothelial cells.
The antiangiogenic potency was evaluated by the inhibition of capillary formation in rat aorta model in which aorta pieces of rat were cultured in collagen gel. That is, the aorta excised from male rat of Sprague-Dawley strain (8-12 weeks age) was washed with a Hanks' solution so that fat tissues around there were removed minutely. The aorta was incised to prepare pieces of 2 mm square and they were allowed to stand in a 24-well plate holding the endothelial cells upside. Then, 500 μl of neutralized Type I collagen (Cell Matrix Type I-A; manufactured by Nitta Gelatin) were poured over each well and allowed to stand at room temperature for about 20 minutes in a clean bench to solidify the gel. After gelling, 500 μl of MCDB 131 medium (manufactured by Chlorella Kogyo) were added thereto followed by incubating in a Co2 incubator (5% CO2) at 37° C. On the next day, the culture medium was exchanged with 500 μl of MCDB 131 medium containing the sample and the incubation was continued. And, at the stage of the 7th day from the addition of the sample, numbers of capillaries formed around the aorta were counted. The IC50 value of each sample is defined as a concentration that the number of blood capillaries is 50% of that observed when no sample was added.

VCAM-1 = test: Inhibition of TNFα-induced expression of adhesion molecule VCAM-1 on endothelial cells; assay type: cell-based, human; details: HUVEC, TNFα 1 ng/ml, 4 hours; listed as C
Description: (§1) Endothelial cells derived from human umbilical vein (HUVEC) were cultured on a 96-well plate until they were fallen in a confluent state. The culture broth was removed. After 150 μl of a new culture broth was added to each well, 20 μl of a sample solution was added thereto. After 15 minutes, 30 μl of TNFα was added such that the final concentration became 1 ng/ml and it was incubated at 37° C. for 4 hours in a 5% CO2 incubator. Next, the culture broth was removed and the cells were washed twice with a phosphate buffer (PBS). Further, a PBS solution containing 0.025% glutaraldehyde was added and the well was allowed to stand at room temperature for 6 minutes to fix the cells. After the cells were immobilized, they were washed twice with 200 μl of phosphate buffer (PBSA) containing 0.25% BSA. Thereafter 100 μl of a PBSA solution containing 1 μg/ml of mouse anti-human VCAM-1 (R&D systems) or a mouse anti-human E-selectin antibody (R&D systems) was added to each well. The well was allowed to stand at room temperature for 30 minutes and then the cells were again washed. A PBSA solution containing 100 μl of peroxidase-conjugated goat anti-mouse antibody (Cosmo Bio Co., Ltd.) was added to the well. Then the well was allowed to stand at room temperature for 30 minutes and thereafter the cells were washed. In succession, 100 μl of 3,3*,5,5*-tetramethylbenzyidine (TMB) substrate solution was added to develop a color. Next, the coloring was stopped by 100 μl of 1M phosphoric acid to measure the absorbance at 450 nm.

[3] = tested on: mouse colon cancer (Colon 38-OT-7); test: Anti-metastatic effect: hepatic metastasis of mouse colon cancer transplanted to caecum; assay type: in vivo; details: for Toxic death: n 8
Description: The mouse colon cancer (Colon 38-OT-7) having a high incidence of the hepatic metastasis was transplanted to the mouse caecum. Then VD1207C was administered intraperitoneallyat each dose of 0.5, 1.0 and 2.0 mg/kg once a day since 12 days after the transplantation.

[4] = tested on: Endothelial cells derived from human umbilical vein (HUVEC); test: Inhibitory effect of growth of endothelial cells (MTT method); assay type: cell-based; details: three days, listed as C
Description: Endothelial cells derived from human umbilical vein (HUVEC; manufactured by Sanko Junyaku) incubated in an EGM medium (manufactured by Sanko Junyaku) were adjusted to 1×10^4 cells/ml and each 100 μl were separately placed on a 96-well plate. After incubating overnight, 100 μl of medium containing sample were added thereto followed by incubating for three days. The cell numbers at that time were measured by MTT method. That is, 50 μl of PBS solution containing 0.33% of 3-(4,5-dimethylthiazol-2-yl)-2,5-diphenyltetrazolium bromide (MTT) was added thereto and incubation was continued for further 3-4 hours. After the supernatant liquid of the culture was removed, 100 μl of DMSO was added to dissolve a formazane which was formed in the cells and the absorbance at the wave length of 460 nm was measured by use of plate reader. The IC50 value is defined as a concentration that the absorbance was 50% of that observed when no sample was added.

[5] = tested on: angiogenesis induced by human colorectal cancer (WiDr cells); test: Antiangiogenic effect in vivo: chamber with WiDr cells transplanted to mouse, 51Cr-labeled erythrocytes; details: 1 mg/kg intraperitoneally once a day for 4 days
Description: Whether angiogenesis induced by human colorectal cancer (WiDr cells) was inhibited by administering VD1207C or not was studied to examine the antiangiogenic effect of VD1207C in vivo.
A chamber in which the WiDr cells were sealed was transplanted to a mouse. Then VD1207C was administered intraperitoneally at each dose of 0.5, 1.0 and 2.0 mg/kg for 4 days once a day. The amount of angiogenesis induced by the tumor was measured quantitatively by measuring the radiao activity in the skin touching with the chamber as the amount of blood by statically injecting erythrocytes labeled by ^51Cr. In FIG. 1, vascular volume generated at each dose of VD1207C is shown.

E-selectin = test: Inhibition of TNFα-induced expression of adhesion molecule E-selectin on endothelial cells; assay type: cell-based, human; details: HUVEC, TNFα 1 ng/ml, 4 hours; listed as C
Description: as §1

collagen arthritis model = details: Peacock D J., J. Exp. Med. 175, 1135-8, 1992; cited from earlier work
[6] = 1 mg/kg i.p. 4 days, listed as C
[7] = 2 mg/kg i.p. 4 days, listed as C

CCCC(C(=O)c1cc(C(OC)C(C)C)c(O)c(C=O)c1O)C1CC(O)C2(OC2CC)C(O)O1 (single isomer, unassigned) [VD1207 C]
Solubility in ethyl acetate, chloroform and dimethyl sulfoxide [1]: soluble
Solubility in neutral water [1]: insoluble
Weight of each of the liver, kidney and lung (autoptic findings) ([2]; 1 mg/kg and 2 mg/kg i.p. 4 days): increase
Biochemistry (GPT) ([2]; 1 mg/kg i.p. 4 days): —
Biochemistry (UN) ([2]; 1 mg/kg i.p. 4 days): —
Blood (PLAT) ([2]; 1 mg/kg i.p. 4 days): —
Blood (RBC) ([2]; 1 mg/kg i.p. 4 days): —
Blood (WBC) ([2]; 1 mg/kg i.p. 4 days): —
Body weight ([2]; 1 mg/kg i.p. 4 days): —
Change in weight (FIGS. 2a and 2b) ([2]; 1 mg/kg i.p. 4 days): inhibition to an increase in weight
Weight (liver) ([2]; 1 mg/kg i.p. 4 days): ↑
Weight (spleen) ([2]; 1 mg/kg i.p. 4 days): —
Weight (kidney) [2, 6]: ↑
Weight (lung) [2, 6]: ↑
Change in weight (FIGS. 2a and 2b) ([2]; 2 mg/kg i.p. 4 days): reduction in weight
Blood (PLAT) [2, 7]: ↓
Body weight [2, 7]: ↓
Weight (kidney) [2, 7]: ↑
Weight (lung) [2, 7]: ↑
IC50 (number of blood capillaries 50% of that without sample) (aorta pieces of rat): 0.050 µg/mL
VCAM-1 (IC50 of expression) (VCAM-1): 0.85 µg/mL
Hepatic metastasis incidence ([3]; 0.5 mg/kg i.p. once a day): 5/7
No. of metastatic nodules (mean ± STD) ([3]; 0.5 mg/kg i.p. once a day): (9.7 ± 12.2)
No. of metastatic nodules, median ([3]; 0.5 mg/kg i.p. once a day): 1.0
Toxic death ([3]; 0.5 mg/kg i.p. once a day): 1
Hepatic metastasis incidence ([3]; 1.0 mg/kg i.p. once a day): 3/6
No. of metastatic nodules (mean ± STD) ([3]; 1.0 mg/kg i.p. once a day): (1.2 ± 1.6)
No. of metastatic nodules, median ([3]; 1.0 mg/kg i.p. once a day): 0.5
Toxic death ([3]; 1.0 mg/kg i.p. once a day): 2
Hepatic metastasis incidence ([3]; 2.0 mg/kg i.p. once a day): 0/5
No. of metastatic nodules (individual animals) ([3]; 2.0 mg/kg i.p. once a day): no metastatic nodules was observed at all
No. of metastatic nodules, median ([3]; 2.0 mg/kg i.p. once a day): 0
Toxic death ([3]; 2.0 mg/kg i.p. once a day): 3
Number of the metastatic nodules ([3]; dose ranging from 0.5 mg/kg): decreased the number of the metastatic nodules
IC50 (growth of endothelial cells, absorbance 50% of no sample) [4]: 0.08 µg/mL
Angiogenesis induced by WiDr cells (vascular volume) [5]: inhibited with a significant difference
E-select (IC50 of expression) (E-selectin): 1.23 µg/mL

CO[C@@H]1[C@H](OC(=O)NC(=O)CCl)CC[C@]2(CO2)[C@H]1[C@@]1(C)O[C@@H]1CC=C(C)C [AGM-470]
Arthritis in a collagen arthritis model (collagen arthritis model): inhibits arthritis
